Measurements from patent publication US10344054B2, “Angiotensin-1-receptor antagonists” (Ferring B.V., priority 2016, dated 2019).
Where two headings read alike, the source gives them in different places. Starred links: 1 amine or outer side, 2 acyl side, 3 side chain; linkers in the order of their positions; H or OH if unused. Non-standard residues stand in square brackets, D forms with d. Residues, ends and D or L forms follow the SMILES beside them. X1 = O=C(CN(C[C@H](O)[C@@H](O)[C@H](O)[C@H](O)CO)[*:1])[*:2]; dPhe(2-Me) = Cc1ccccc1C[C@@H](N)C(=O)O; dBta = N[C@H](Cc1csc2ccccc12)C(=O)O; Gly(cPent) = N[C@H](C(=O)O)C1CCCC1; Chg = N[C@H](C(=O)O)C1CCCCC1

Legend:
hAT1R [1] = molecular target: T1, hAT1R (Homo sapiens, UniProt P30556); experiment: FLIPR calcium flux assay, Part I: agonist activity; format: cell-based; settings: read-out: hAT1R Agonist Efficacy Agonist (%) Ave
T1 sequence (P30556 1-359): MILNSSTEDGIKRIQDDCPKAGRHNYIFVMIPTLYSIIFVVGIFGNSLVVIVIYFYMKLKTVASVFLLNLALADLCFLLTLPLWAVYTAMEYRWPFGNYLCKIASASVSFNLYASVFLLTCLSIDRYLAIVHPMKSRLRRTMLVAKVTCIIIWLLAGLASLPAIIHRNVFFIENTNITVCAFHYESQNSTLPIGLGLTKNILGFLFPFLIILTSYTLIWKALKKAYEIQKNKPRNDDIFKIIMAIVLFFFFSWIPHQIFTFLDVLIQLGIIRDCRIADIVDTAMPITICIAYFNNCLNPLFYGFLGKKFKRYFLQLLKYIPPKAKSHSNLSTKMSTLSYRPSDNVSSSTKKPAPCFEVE
Method: (§1) AT1 receptor (AT1R) agonists increase intracellular flux of calcium ions. AT1R antagonists can reduce the agonist effect. […] Compounds were first tested for agonism (Part I) followed by addition of the AT1R agonist angiotensin II to test for antagonist activity (Part II). This assay used a stable hAT1R expressing cell line (ChanTest hAT1R; ChanTest Corp A628). Intracellular flux of calcium in response to agonist was measured through real-time measurement of fluorescence induced through the interaction of Ca2+ (released from intracellular stores) and calcium-sensitive dye. In Part I, cells were exposed to varying concentrations of test compounds and immediately measured for agonist activity (EC50 and Efficacy).
(§2) ChanTest hAT1R stable cells were maintained in Ham's F12 containing 10% (v/v) heat inactivated fetal bovine serum (FBS-HI), 4 mM Glutamax, 1% NEAA, 50 ng/mL plasmocin, 400 μg/mL G418 at 37° C. under 5% CO2 in a humidified atmosphere.
(§3) For FLIPR assay, ChanTest hAT1R cells were trypsinized with 6 ml of Trypsin EDTA solution and harvested in phenol-red free DMEM containing 10% FBS-HI, 4 mM Glutamax and counted, spun down and resuspended in the same medium. The cell suspension was added to the wells of 384-well black PDL clear bottom plates at 2.5×10^4 cells/well, 20 μl/well.
(§4) Preparation of Loading Buffer:
(§5) • Loading Buffer: 1 vial of Calcium 5 Bulk Assay reagent was dissolved in 100 ml of 1× HBSS-20 mM Hepes buffer. • Probenecid was resuspended at 1 M in 1 M NaOH. Once the probenecid had gone into solution, an equal volume of H2O was added to make a solution of 500 mM followed by a 1:100 dilution in the Loading Buffer for a working concentration of 5 mM. The pH was adjusted to 7.4 using 1 M NaOH. Loading the Cells with Loading Buffer • Cell plates were removed from the incubator and 25 μl of Loading Buffer containing probenecid (5 mM) added to each well. • Plates were incubated for 1 hour at 37° C. under 5% CO2 in a humidified atmosphere. […] The remaining steps of the assay were carried forward by FLIPR Tetra. A baseline reading was taken at 1-second (s) intervals for 10 s followed by the addition of 5 μl of 10× compounds. The compound-induced fluorescence signal was then measured for 3 minutes with readings taken at 1-s intervals. • The cell plate was removed from the FLIPR and set aside for an additional 17 minutes. • The cell plate was then transferred back to the FLIPR Tetra, along with the 384 well Angiotensin II agonist dilution plate. A baseline reading was taken at 1-second (s) intervals for 10 seconds, followed by the addition of 5.5 μl of 10× Angiotensin II agonist. The agonist-induced fluorescence signal was then measured for 3 minutes with readings taken at 1-s intervals. • Overall, each well in the FLIPR assay was composed of the following components in a total volume of 55.5 μl:
(§6) Time-course results from the FLIPR Calcium 5 assay were expressed as relative fluorescence light units (RFU). The maximum minus minimum values (Max−Min) were used to quantify the strength of the signal. Mean RFU were calculated from replicate values and plotted on the y-axis versus compound concentration on a logarithmic scale on the x-axis, and a single-binding site, four parameter concentration response model: (MIN+((MAX−MIN)/(1+((EC50/x)^Hill)))), was used to perform non-linear regression analysis, generating concentration response curves. Reported parameters included agonist potency EC50 (the concentration causing half-maximal agonist response), antagonist potency IC50 (the concentration causing half-maximal inhibition of the agonist response for antagonist compounds) and efficacy (% MPE: percent of the maximal possible effect).

hAT1R [2] = molecular target: T1, hAT1R; experiment: FLIPR calcium flux assay, Part II: antagonist activity against Angiotensin II; format: cell-based; settings: for Emax: read-out: hAT1R Antagonist Efficacy Antag (%) Ave; as to hAT1R Antagonist Efficacy Antag (%) Ave: Angiotensin II 10 nM final concentration
Method: as §1, §2, §3, §4, §5, §6

[3] = ChanTest hAT1R stable cells, % MPE, percent of the maximal possible effect
[4] = read-out: hAT1R Antagonist IC50 Ave

| SMILES | Emax (hAT1R [2]) [%] | Emax (hAT1R [1]; [3]) [%] | IC50 (hAT1R [2]; [4]) [nM] | Emax (hAT1R [1]) [%] | IC50 (hAT1R [2]) [nM] |
| --- | --- | --- | --- | --- | --- |
| CNCC(=O)N[C@@H](CCCNC(=N)N)C(=O)N[C@H](C(=O)N[C@@H](Cc1ccc(O)cc1)C(=O)N[C@H](C(=O)N[C@@H](Cc1c[nH]cn1)C(=O)N1CCC[C@H]1C(=O)N[C@H](Cc1cccc2ccccc12)C(=O)O)[C@@H](C)OC)C(C)C [Compound 17, Sar-Arg-Val-Tyr-Thr(Me)-His-Pro-(D-1Nal)-OH] | 100 | – | – | 4 | 6 |
| CNCC(=O)N[C@@H](CCCNC(=N)N)C(=O)N[C@H](C(=O)N[C@@H](Cc1ccc(O)cc1)C(=O)N[C@@H](CCCCN)C(=O)N[C@@H](Cc1c[nH]cn1)C(=O)N1CCC[C@H]1C(=O)N[C@H](Cc1cccc2ccccc12)C(=O)O)C(C)C [Compound 2, Sar-Arg-Val-Tyr-Lys-His-Pro-(D-1Nal)-OH] (HELM PEPTIDE1{[Sar].R.V.Y.K.H.P.[O=C(O)[C@@H](Cc1cccc2ccccc12)N[*:1]]}$$$$V2.0) | 100 | 1 | 16.5 | – | – |
| CNCC(=O)N[C@@H](CCCNC(=N)N)C(=O)N[C@H](C(=O)N[C@@H](Cc1ccc(O)c(O)c1)C(=O)N[C@H](C(=O)N[C@@H](Cc1c[nH]cn1)C(=O)N1CCC[C@H]1C(=O)N[C@H](Cc1ccccc1Cl)C(=O)O)C(C)C)C(C)C [Compound 32, Sar-Arg-Val-DOPA-Val-His-Pro-(D-Phe(2-Cl))—OH] (HELM PEPTIDE1{[Sar].R.V.[O=C([C@H](Cc1ccc(O)c(O)c1)N[*:1])[*:2]].V.H.P.[O=C(O)[C@@H](Cc1ccccc1Cl)N[*:1]]}$$$$V2.0) | 99 | 5 | 24.1 | – | – |
| CC[C@H](C)[C@H](NC(=O)[C@@H]1CCCN1C(=O)[C@H](Cc1c[nH]cn1)NC(=O)[C@@H](NC(=O)[C@H](Cc1ccc(O)cc1)NC(=O)[C@@H](NC(=O)[C@H](CCCNC(=N)N)NC(=O)CNC)C(C)C)[C@@H](C)CC)C(=O)O [Ref. Cpd. 1, Sar-Arg-Val-Tyr-Ile-His-Pro-Ile-OH, reference compound] | 99 | 42 | – | – | – |
| CNCC(=O)N[C@@H](CCCNC(=N)N)C(=O)N[C@H](C(=O)N[C@@H](Cc1ccc(O)cc1)C(=O)N[C@@H](Cc1ccc(N)cc1)C(=O)N[C@@H](Cc1c[nH]cn1)C(=O)N1CCC[C@H]1C(=O)N[C@H](Cc1cccc2ccccc12)C(=O)O)C(C)C [Compound 13, Sar-Arg-Val-Tyr-Aph-His-Pro-(D-1Nal)-OH] (HELM PEPTIDE1{[Sar].R.V.Y.[Nc1ccc(C[C@H](N[*:1])C(=O)[*:2])cc1].H.P.[O=C(O)[C@@H](Cc1cccc2ccccc12)N[*:1]]}$$$$V2.0) | 100 | 7 | 3.2 | – | – |
| CNCC(=O)N[C@@H](CCCNC(=N)N)C(=O)N[C@H](C(=O)N[C@@H](Cc1ccc(N)cc1)C(=O)N[C@H](C(=O)N[C@@H](Cc1c[nH]cn1)C(=O)N1CCC[C@H]1C(=O)N[C@H](Cc1ccccc1Cl)C(=O)O)C(C)C)C(C)C [Compound 33, Sar-Arg-Val-Aph-Val-His-Pro-(D-Phe(2-Cl))—OH] (HELM PEPTIDE1{[Sar].R.V.[Nc1ccc(C[C@H](N[*:1])C(=O)[*:2])cc1].V.H.P.[O=C(O)[C@@H](Cc1ccccc1Cl)N[*:1]]}$$$$V2.0) | 100 | 3 | 17.1 | – | – |

Second part, led by results:

| Emax (hAT1R [2]) [%] | Emax (hAT1R [1]; [3]) [%] | IC50 (hAT1R [2]; [4]) [nM] | SMILES | Emax (hAT1R [1]) [%] | IC50 (hAT1R [2]) [nM] |
| --- | --- | --- | --- | --- | --- |
| 101 | 6 | 18.6 | Cc1ccccc1C[C@@H](NC(=O)[C@@H]1CCCN1C(=O)[C@H](Cc1c[nH]cn1)NC(=O)[C@@H](NC(=O)[C@H](Cc1ccc(O)cc1)NC(=O)[C@@H](NC(=O)[C@H](CCCNC(=N)N)NC(=O)CNC[C@H](O)[C@@H](O)[C@H](O)[C@H](O)CO)C(C)C)C(C)C)C(=O)O [Compound 45, Glac-Arg-Val-Tyr-Val-His-Pro-(D-Phe(2-Me))—OH] (HELM PEPTIDE1{[O=C(CNC[C@H](O)[C@@H](O)[C@H](O)[C@H](O)CO)[*:2]].R.V.Y.V.H.P.[Cc1ccccc1C[C@@H](N[*:1])C(=O)O]}$$$$V2.0) | – | – |
| 99 | 12 | 32.9 | CNCC(=O)N[C@@H](CCCNC(=N)N)C(=O)N[C@H](C(=O)N[C@@H](Cc1ccc(O)cc1)C(=O)N[C@H](C(=O)N[C@@H](Cc1c[nH]cn1)C(=O)N1CCC[C@H]1C(=O)N[C@H](Cc1ccccc1C(F)(F)F)C(=O)O)C1CCCCC1)C(C)C [Compound 26, Sar-Arg-Val-Tyr-Chg-His-Pro-(D-Phe(2-CF3))—OH] (HELM PEPTIDE1{[Sar].R.V.Y.[O=C([C@@H](N[*:1])C1CCCCC1)[*:2]].H.P.[O=C(O)[C@@H](Cc1ccccc1C(F)(F)F)N[*:1]]}$$$$V2.0) | – | – |
| 101 | 8 | 26.7 | CC(C)[C@H](NC(=O)[C@H](CCCNC(=N)N)NC(=O)CNC[C@H](O)[C@@H](O)[C@H](O)[C@H](O)CO)C(=O)N[C@@H](Cc1ccc(O)cc1)C(=O)N[C@H](C(=O)N[C@@H](Cc1c[nH]cn1)C(=O)N1CCC[C@H]1C(=O)N[C@H](Cc1ccccc1-c1ccccc1)C(=O)O)C(C)C [Compound 39, Glac-Arg-Val-Tyr-Val-His-Pro-(D-Phe(2-Ph))—OH] (HELM PEPTIDE1{[O=C(CNC[C@H](O)[C@@H](O)[C@H](O)[C@H](O)CO)[*:2]].R.V.Y.V.H.P.[O=C(O)[C@@H](Cc1ccccc1-c1ccccc1)N[*:1]]}$$$$V2.0) | – | – |
| 100 | 6 | 14.3 | CNCC(=O)N[C@@H](CCCNC(=N)N)C(=O)N[C@H](C(=O)N[C@@H](Cc1ccc(O)cc1)C(=O)N[C@H](C(=O)N[C@@H](Cc1c[nH]cn1)C(=O)N1CCC[C@H]1C(=O)N[C@H](Cc1csc2ccccc12)C(=O)O)C1CCCCC1)C(C)C [Compound 35, Sar-Arg-Val-Tyr-Chg-His-Pro-(D-(3-benzothienyl)alanine)-OH] (HELM PEPTIDE1{[Sar].R.V.Y.[O=C([C@@H](N[*:1])C1CCCCC1)[*:2]].H.P.[O=C(O)[C@@H](Cc1csc2ccccc12)N[*:1]]}$$$$V2.0) | – | – |
| 101 | 5 | 19.1 | CC(C)[C@H](NC(=O)[C@H](CCCNC(=N)N)NC(=O)CNC[C@H](O)[C@@H](O)[C@H](O)[C@H](O)CO)C(=O)N[C@@H](Cc1ccc(O)cc1)C(=O)N[C@H](C(=O)N[C@@H](Cc1c[nH]cn1)C(=O)N1CCC[C@H]1C(=O)N[C@H](Cc1csc2ccccc12)C(=O)O)C1CCCCC1 [Compound 41, Glac-Arg-Val-Tyr-Chg-His-Pro-(D-(3-benzothienyl)alanine)-OH] (H-[X1]RVY[Chg]HP[dBta]-OH) | – | – |
| 101 | 7 | 20.4 | Cc1ccccc1C[C@@H](NC(=O)[C@@H]1CCCN1C(=O)[C@H](Cc1c[nH]cn1)NC(=O)[C@@H](NC(=O)[C@H](Cc1ccc(O)cc1)NC(=O)[C@@H](NC(=O)[C@H](CCCNC(=N)N)NC(=O)CNC[C@H](O)[C@@H](O)[C@H](O)[C@H](O)CO)C(C)C)C1CCCC1)C(=O)O [Compound 44, Glac-Arg-Val-Tyr-Cpg-His-Pro-(D-Phe(2-Me))—OH] (H-[X1]RVY[Gly(cPent)]HP[dPhe(2-Me)]-OH) | – | – |
